Source: patent US20230233569A1 (Revolution Medicines, Inc., priority 2020, published 2023)

How the values were obtained:
Capan-1 (K-Ras G12V) = assay: CellTiter-Glo cell viability assay, 5-day treatment; type: cell-based; conditions: Homo sapiens, CAPAN-1, 120 h, 5-day treatment; read-out: Capan-1 Cell Viability assay data (K-Ras G12V, IC50)
How it was run: (§1)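 Viability is read as luminescence on day 5 after direct compound addition to plated cells, following about 30 minutes' room-temperature equilibration. Each signal is scaled to mean DMSO as 100%.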

NCI-H358 (K-Ras G12C) = assay: as above; type: cell-based; conditions: Homo sapiens, NCI-H358, 120 h, 5-day treatment; read-out: H358 Cell Viability assay data (K-Ras G12C, IC50)
How it was run: as §1

NRAS Q61R = NRAS Q61R (Homo sapiens, UniProt P01111+P62937, Q61R); assay: Disruption of BRAF RBD interaction with Ras (FRET / MOA assay, with Cyclophilin A); type: biochemical; conditions: NRAS Q61R; read-out: NRAS Q61R FRET data IC50
Sequence of NRAS Q61R (P01111 whole entry Q61R): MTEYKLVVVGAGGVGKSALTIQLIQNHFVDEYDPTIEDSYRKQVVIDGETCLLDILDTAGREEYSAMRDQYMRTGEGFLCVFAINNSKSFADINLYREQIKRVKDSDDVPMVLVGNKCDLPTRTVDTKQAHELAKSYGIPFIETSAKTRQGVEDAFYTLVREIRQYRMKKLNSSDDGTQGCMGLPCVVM
Sequence of NRAS Q61R (P62937 whole entry): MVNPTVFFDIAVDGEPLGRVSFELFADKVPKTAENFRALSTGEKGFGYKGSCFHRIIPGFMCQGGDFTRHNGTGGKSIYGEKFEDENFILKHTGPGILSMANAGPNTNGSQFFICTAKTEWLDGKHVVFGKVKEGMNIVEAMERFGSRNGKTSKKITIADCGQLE
How it was run: (§2)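 IC50 reflects compound-driven Ras:Cyclophilin A ternary complex displacing BRAF RBD, read as lowered TR-FRET ratio relative to DMSO after Eu anti-His (10 nM) and APC anti-GST (50 nM) detection for 1.5 h. Prior incubation 3 h, 25° C, with 12.5 nM GMPPNP-loaded Ras, 50 nM BRAF RBD, 25 μM Cyclophilin A; top compound 30 μM.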

NRAS WT = NRAS WT (Homo sapiens, UniProt P01111+P62937); assay: as above; type: biochemical; conditions: NRAS WT; read-out: NRAS WT FRET data IC50
Sequence of NRAS WT (P01111 whole entry): as the sequence (P01111 whole entry Q61R) above, with R61Q counted along it
Sequence of NRAS WT (P62937 whole entry): as the sequence (P62937 whole entry) above
How it was run: as §2

KRAS Q61H = KRAS Q61H (Homo sapiens, UniProt P01116+P62937, Q61H); assay: as above; type: biochemical; conditions: KRAS Q61H; read-out: KRAS Q61H FRET data IC50
Sequence of KRAS Q61H (P01116 1-169 isoform P01116-2 Q61H limits assumed): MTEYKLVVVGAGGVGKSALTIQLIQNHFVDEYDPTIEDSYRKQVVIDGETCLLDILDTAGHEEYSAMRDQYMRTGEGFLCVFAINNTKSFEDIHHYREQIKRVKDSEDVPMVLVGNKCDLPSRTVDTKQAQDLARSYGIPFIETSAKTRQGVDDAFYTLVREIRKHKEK
Sequence of KRAS Q61H (P62937 whole entry): as the sequence (P62937 whole entry) above
How it was run: as §2

NRAS Q61K = NRAS Q61K (Homo sapiens, UniProt P01111+P62937, Q61K); assay: as above; type: biochemical; conditions: NRAS Q61K; read-out: NRAS Q61K FRET data IC50
Sequence of NRAS Q61K (P01111 whole entry Q61K): as the sequence (P01111 whole entry Q61R) above, with R61K counted along it
Sequence of NRAS Q61K (P62937 whole entry): as the sequence (P62937 whole entry) above
How it was run: as §2

KRAS G12C = KRAS G12C (Homo sapiens, UniProt P01116+P62937, G12C); assay: as above; type: biochemical; conditions: read-out: KRAS G12C FRET data, IC50
Sequence of KRAS G12C (P01116 1-169 isoform P01116-2 G12C): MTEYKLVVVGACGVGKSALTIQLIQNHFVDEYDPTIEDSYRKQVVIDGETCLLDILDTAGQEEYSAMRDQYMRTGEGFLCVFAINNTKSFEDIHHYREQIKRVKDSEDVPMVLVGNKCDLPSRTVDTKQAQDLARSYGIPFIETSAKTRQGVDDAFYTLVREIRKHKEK
Sequence of KRAS G12C (P62937 whole entry): as the sequence (P62937 whole entry) above
How it was run: (§3)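 First, compounds at a ten-point threefold dilution series (highest final concentration 30 μM) were incubated with nucleotide-loaded K-Ras, Cyclophilin A and BRAF RBD for 3 h at 25 °C. Next, detection antibodies were added for 1.5 h. Finally, IC50 was calculated from TR-FRET ratio decreases against DMSO controls.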

KRAS G12D = KRAS G12D (Homo sapiens, UniProt P01116+P62937, G12D); assay: as above; type: biochemical; conditions: read-out: KRAS G12D FRET data, IC50
Sequence of KRAS G12D (P01116 1-169 isoform P01116-2 G12D limits assumed): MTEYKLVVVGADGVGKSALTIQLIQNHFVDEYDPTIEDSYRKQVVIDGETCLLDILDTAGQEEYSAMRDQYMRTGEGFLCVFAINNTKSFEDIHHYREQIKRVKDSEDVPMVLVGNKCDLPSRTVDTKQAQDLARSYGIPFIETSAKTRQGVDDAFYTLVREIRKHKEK
Sequence of KRAS G12D (P62937 whole entry): as the sequence (P62937 whole entry) above
How it was run: as §3

NRAS G12C = NRAS G12C (Homo sapiens, UniProt P01111+P62937, G12C); assay: as above; type: biochemical; conditions: NRAS G12C; read-out: NRAS G12C FRET data IC50
Sequence of NRAS G12C (P01111 whole entry G12C): as the sequence (P01111 whole entry Q61R) above, with G12C, R61Q counted along it
Sequence of NRAS G12C (P62937 whole entry): as the sequence (P62937 whole entry) above

KRAS G13D = KRAS G13D (Homo sapiens, UniProt P01116+P62937, G13D); assay: as above; type: biochemical; conditions: KRAS G13D; read-out: KRAS G13D FRET data IC50
Sequence of KRAS G13D (P01116 1-169 isoform P01116-2 G13D limits assumed): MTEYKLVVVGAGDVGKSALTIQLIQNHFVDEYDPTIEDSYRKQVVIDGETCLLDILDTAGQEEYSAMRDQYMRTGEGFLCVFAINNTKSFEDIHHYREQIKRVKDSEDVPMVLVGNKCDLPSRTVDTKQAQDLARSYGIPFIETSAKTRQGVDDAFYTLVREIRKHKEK
Sequence of KRAS G13D (P62937 whole entry): as the sequence (P62937 whole entry) above
How it was run: as §3

KRAS WT = KRAS WT (Homo sapiens, UniProt P01116+P62937); assay: as above; type: biochemical; conditions: KRAS WT; read-out: KRAS WT FRET data IC50
Sequence of KRAS WT (P01116 1-169 isoform P01116-2 limits assumed): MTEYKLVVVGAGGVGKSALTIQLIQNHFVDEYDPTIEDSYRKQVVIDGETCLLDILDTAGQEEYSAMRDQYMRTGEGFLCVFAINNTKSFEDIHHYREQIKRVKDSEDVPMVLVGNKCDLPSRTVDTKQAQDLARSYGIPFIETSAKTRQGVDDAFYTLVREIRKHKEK
Sequence of KRAS WT (P62937 whole entry): as the sequence (P62937 whole entry) above
How it was run: as §3

KRAS G13C = KRAS G13C (Homo sapiens, UniProt P01116+P62937, G13C); assay: as above; type: biochemical; conditions: read-out: KRAS G13C FRET data, IC50
Sequence of KRAS G13C (P01116 1-169 isoform P01116-2 G13C): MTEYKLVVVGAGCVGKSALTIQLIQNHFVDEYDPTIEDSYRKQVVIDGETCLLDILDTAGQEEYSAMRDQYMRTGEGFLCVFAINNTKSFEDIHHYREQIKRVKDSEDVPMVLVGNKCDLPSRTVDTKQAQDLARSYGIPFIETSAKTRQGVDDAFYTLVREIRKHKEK
Sequence of KRAS G13C (P62937 whole entry): as the sequence (P62937 whole entry) above
How it was run: as §3

KRAS G12V = KRAS G12V (Homo sapiens, UniProt P01116+P62937, G12V); assay: as above; type: biochemical; conditions: KRAS G12V; read-out: KRAS G12V FRET data IC50
Sequence of KRAS G12V (P01116 1-169 isoform P01116-2 G12V limits assumed): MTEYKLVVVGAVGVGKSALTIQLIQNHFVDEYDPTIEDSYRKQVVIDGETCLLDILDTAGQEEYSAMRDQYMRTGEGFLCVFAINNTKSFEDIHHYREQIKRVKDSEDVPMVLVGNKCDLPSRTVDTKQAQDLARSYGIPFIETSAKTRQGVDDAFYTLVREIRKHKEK
Sequence of KRAS G12V (P62937 whole entry): as the sequence (P62937 whole entry) above
How it was run: as §3

KRAS G12S = KRAS G12S (Homo sapiens, UniProt P01116+P62937, G12S); assay: as above; type: biochemical; conditions: read-out: KRAS G12S FRET data, IC50
Sequence of KRAS G12S (P01116 1-169 isoform P01116-2 G12S limits assumed): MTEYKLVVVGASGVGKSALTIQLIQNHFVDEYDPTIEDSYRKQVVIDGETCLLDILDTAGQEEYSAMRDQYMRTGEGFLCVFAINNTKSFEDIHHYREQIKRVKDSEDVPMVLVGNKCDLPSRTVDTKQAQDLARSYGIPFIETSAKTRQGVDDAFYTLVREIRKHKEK
Sequence of KRAS G12S (P62937 whole entry): as the sequence (P62937 whole entry) above
How it was run: as §3

| Compound | IC50 (NCI-H358 (K-Ras G12C)) [nM] | IC50 (NRAS Q61R) [nM] | IC50 (NRAS WT) [nM] | IC50 (KRAS Q61H) [nM] | IC50 (NRAS Q61K) [nM] | IC50 (KRAS G12C) [nM] | IC50 (KRAS G12D) [nM] | IC50 (NRAS G12C) [nM] | IC50 (KRAS G13D) [nM] | IC50 (KRAS WT) [nM] | IC50 (KRAS G13C) [nM] | IC50 (KRAS G12V) [nM] | IC50 (KRAS G12S) [nM] | IC50 (Capan-1 (K-Ras G12V)) [nM] |
| --- | --- | --- | --- | --- | --- | --- | --- | --- | --- | --- | --- | --- | --- | --- |
| CCn1c(-c2cccnc2[C@H](C)OC)c2c3cc(ccc31)-c1csc(n1)C[C@H](NC(=O)[C@H](C(C)C)N(C)C(=O)[C@H]1CCN(C(=O)CNC)C1)C(=O)N1CCC[C@H](N1)C(=O)OCC(C)(C)C2 [Example A99] | > 10000 | 1000 to 10000 | 100 to 1000 | 100 to 1000 | 1000 to 10000 | 100 to 1000 | 100 to 1000 | 100 to 1000 | 1000 to 10000 | 100 to 1000 | 100 to 1000 | 1000 to 10000 | 1000 to 10000 | > 10000 |
| CCn1c(-c2cccnc2[C@H](C)OC)c2c3cc(ccc31)-c1csc(n1)C[C@H](NC(=O)[C@H](C(C)C)N(C)C(=O)N1CC(NC)C1)C(=O)N1CCC[C@H](N1)C(=O)OCC(C)(C)C2 (atropisomer, axis not shown) [Example A337] | 10 to 100 | 100 to 1000 | 100 to 1000 | 100 to 1000 | 10 to 100 | 100 to 1000 | 1000 to 10000 | 100 to 1000 | 100 to 1000 | 100 to 1000 | 100 to 1000 | 100 to 1000 | 100 to 1000 | 100 to 1000 |
| CCn1c(-c2cc(N3CCN(C)CC3)cnc2[C@H](C)OC)c2c3cc(ccc31)-c1cccc(c1)C[C@H](NC(=O)[C@H](C(C)C)N(C)C(=O)[C@@H]1OCC[C@@H]1c1ccccc1)C(=O)N1CCC[C@H](N1)C(=O)OCC(C)(C)C2 (atropisomer, axis not shown) [Example A562] | < 10 | 10 to 100 | 10 to 100 | 10 to 100 | 100 to 1000 | 10 to 100 | 100 to 1000 | 10 to 100 | 100 to 1000 | 10 to 100 | 10 to 100 | 10 to 100 | 100 to 1000 | < 10 |

More lines, main results first:

| IC50 (NCI-H358 (K-Ras G12C)) [nM] | IC50 (NRAS Q61R) [nM] | IC50 (NRAS WT) [nM] | IC50 (KRAS Q61H) [nM] | IC50 (NRAS Q61K) [nM] | IC50 (KRAS G12C) [nM] | IC50 (KRAS G12D) [nM] | IC50 (NRAS G12C) [nM] | IC50 (KRAS G13D) [nM] | IC50 (KRAS WT) [nM] | IC50 (KRAS G13C) [nM] | IC50 (KRAS G12V) [nM] | IC50 (KRAS G12S) [nM] | Compound | IC50 (Capan-1 (K-Ras G12V)) [nM] |
| --- | --- | --- | --- | --- | --- | --- | --- | --- | --- | --- | --- | --- | --- | --- |
| 10 to 100 | 1000 to 10000 | 100 to 1000 | 100 to 1000 | 100 to 1000 | 100 to 1000 | 1000 to 10000 | 100 to 1000 | 1000 to 10000 | 1000 to 10000 | 1000 to 10000 | 1000 to 10000 | 1000 to 10000 | CCn1c(-c2cccnc2[C@H](C)OC)c2c3cc(ccc31)-c1csc(n1)C[C@H](NC(=O)[C@H](C(C)C)N(C)C(=O)N1C[C@@H]3CN(C)CC[C@@H]31)C(=O)N1CCC[C@H](N1)C(=O)OCC(C)(C)C2 [Example A481] | 10 to 100 |
| 100 to 1000 | 100 to 1000 | 10 to 100 | 10 to 100 | 10 to 100 | 10 to 100 | 100 to 1000 | 10 to 100 | 100 to 1000 | 100 to 1000 | 100 to 1000 | 100 to 1000 | 100 to 1000 | CCn1c(-c2cccnc2[C@H](C)OC)c2c3cc(ccc31)-c1csc(n1)C[C@H](NC(=O)[C@H](C(C)C)N(C)C(=O)N1CC[C@H]3CN(C)C[C@H]31)C(=O)N1CCC[C@H](N1)C(=O)OCC(C)(C)C2 (atropisomer, axis not shown) [Example A471] | 100 to 1000 |
| 100 to 1000 | 100 to 1000 | 10 to 100 | 10 to 100 | 100 to 1000 | 10 to 100 | 100 to 1000 | 10 to 100 | 100 to 1000 | 10 to 100 | 100 to 1000 | 100 to 1000 | 100 to 1000 | CCn1c(-c2cccnc2[C@H](C)OC)c2c3cc(ccc31)-c1csc(n1)C[C@H](NC(=O)[C@H](C(C)C)N(C)C(=O)N1CCC13CN(C)C3)C(=O)N1CCC[C@H](N1)C(=O)OCC(C)(C)C2 [Example A274] | 100 to 1000 |
